Paper PMC8206213, “An L-2-hydroxyglutarate biosensor based on specific transcriptional regulator LhgR” (Nature Communications, 2021)
Values joined by “and” are separate entries in the source; they are usually repeats but may differ in a detail not shown here. Identical values can stand only once.

Assays:
LHGFR0N3C [1] = assay: Influence of other compounds on the response of purified LHGFR0N3C to L-2-HG; type: binding, Pseudomonas putida W619
Description: (§1) Purified L-2-HG biosensors and different compounds were diluted by 50 mM Tris-HCl buffer (pH 7.4), mixed together in a black 96-well plate at a volume ratio of 3:1, and the fluorescence intensities were measured using an EnSight microplate reader (PerkinElmer, USA) with excitation at 430 nm, emission at 485 nm (mTFP) and 528 nm (Venus). […] The [L-2-HG], Kd, and p refer to the L-2-HG concentration, apparent dissociation constant, and Hill slope, respectively. Emission spectra were recorded at 430 nm excitation, in steps of 2 nm. Excitation spectra were recorded using emission at 550 nm, excitation from 380 to 535 nm in steps of 2 nm.

LHGFR0N3C [2] = assay: Specificity of purified LHGFR0N3C, emission ratio with 240 μM compounds; type: binding, Pseudomonas putida W619; details: 240 μM compound
Description: as §1

LHGFR0N7C [3] = assay: Specificity of purified LHGFR0N7C, emission ratio with 240 μM compounds; type: binding, Pseudomonas putida W619; details: 240 μM compound
Description: as §1

LhgO = assay: Enzymatic assay of LhgO in crude extracts of P. putida KT2440 derivatives grown on different carbon sources (induction of lhgO under LhgR control); type: cell-based, Pseudomonas putida
Description: The cells were harvested at mid-log phase, washed twice and resuspended in phosphate-buffered saline (PBS), then lysed by sonication on ice after the addition of 1 mM phenylmethylsulfonyl fluoride (PMSF). […] Protein concentrations of the supernatants were determined using the Bradford protein assay kit (Sangon, China). […] The 800 μL reaction solution contained 0.1 mM […], 0.05 mM DCPIP, 0.2 mM phenazine methosulfate (PMS) in PBS and 40 μL crude extracts.

[4] = test system: LHGFR0N3C expressed in E. coli BL21(DE3); assay: Specificity of LHGFR0N3C expressed in E. coli BL21(DE3), 1 mM compounds; type: cell-based; details: for Emission ratio: 1 mM compound, Fig. 5c
Description: (§2) To characterize the sensitivity and specificity of LHGFR expressed in E. coli BL21(DE3), 90 μL cell suspensions following 8 h carbon starvation were mixed with 10 μL increasing concentrations of L-2-HG or other compounds, and then added into a black 96-well plate (total 100 μL/per well), the fluorescence intensities were determined using an EnSight microplate reader (PerkinElmer, USA) and the following instrument settings: excitation at 430 nm, emission at 485 nm (mTFP) and 528 nm (Venus), time intervals of 5 min, the temperature at 37 °C, and shake at 180 rpm.

[5] = test system: LHGFR0N7C expressed in E. coli BL21(DE3); assay: Specificity of LHGFR0N7C expressed in E. coli BL21(DE3), 1 mM compounds; type: cell-based; details: Supplementary Fig. 13c
Description: as §2

LhgR = assay: EMSA, effect of compounds on LhgR binding to the lhgO promoter region F1; set-up: species or system Pseudomonas putida W619; details: 50 mM compound, 10 nM F1, 60 nM LhgR
Description: Electrophoretic mobility shift assays (EMSAs) were carried out using the DNA fragment (F1 or F2) and purified LhgR. The DNA fragments were first amplified by primer pairs F1-F/F1-R and F2-F/F2-R, respectively. Then, either fragment at a concentration of 10 nM DNA was incubated with LhgR (0–160 nM) in 20 μL EMSA binding buffer (10 mM Tris-HCl [pH 7.4], 50 mM KCl, 0.5 mM EDTA, 10% [vol/vol] glycerol, and 1 mM dithiothreitol [DTT]). The binding reactions were carried out at 30 °C for 30 min. Electrophoresis was performed on 6% native polyacrylamide gels at 4 °C and 170 V (constant voltage) for about 45 min, followed by staining with SYBR green I (TaKaRa, China) and photographing. Analysis of the interaction between lhgO promoter region (F1) and LHGFR was performed using the same procedure.
To characterize the effector of LhgR, purified LhgR was first incubated with L-lysine, 5-aminovalerate, glutarate, L-2-HG, D-2-HG, 2-KG, or succinate at 30 °C for 15 min, followed by incubation with the added DNA fragments at 30 °C for 30 min. The mixtures were subsequently subjected to electrophoresis.

LHGFR0N7C [6] = assay: Influence of other compounds on the response of purified LHGFR0N7C to L-2-HG; type: binding, Pseudomonas putida W619; details: Suppl. Fig. 9b; L-2-HG alone or with the compound; three replicates
Description: as §1

SMILES: O=C(O)CC[C@@H](O)C(=O)O [D-2-HG]
- Influence on the response of LHGFR0N3C to L-2-HG (LHGFR0N3C [1]; 240 μM D-2-HG, 1 mM 2-KG or 1 mM ATP for dose-response curves): could barely affect the response of LHGFR0N3C to L-2-HG
- Emission ratio (LHGFR0N3C [1]; Suppl. Fig. 9a, L-2-HG alone or with the compound, three replicates): 2.0547 and 2.056 and 2.045
- Emission ratio (LHGFR0N3C [2]): 1.4562 and 1.441 and 1.426
- Emission ratio (LHGFR0N7C [3]): 1.984 and 1.994 and 1.98
- LhgO activity (LhgO; crude extract of DcsiRDlhgO-pME6032 grown in MSM with the compound as sole carbon source): 7.06E-04 and 6.93E-04 and 7.09E-04
- Induction of lhgO expression / effector molecule of LhgR (LhgO; gene segment F2-lhgR-F1-lhgO in P. putida KT2440 derivatives): neither D-2-HG nor glutarate can serve as the effector molecule of LhgR
- Emission ratio ([4]; 0 min): 1.011 and 0.989 and 0.9926
- Emission ratio ([4]; 5 min): 1.03 and 1.001 and 1.013
- Emission ratio ([4]; 10 min): 1.043 and 1.03 and 1.027
- Emission ratio ([4]; 15 min): 1.0445 and 1.033 and 1.032
- Emission ratio ([4]; 20 min): 1.062 and 1.044 and 1.049
- Emission ratio ([4]; 25 min): 1.051 and 1.047 and 1.058
- Emission ratio ([4]; 30 min): 1.07 and 1.05 and 1.058
- Emission ratio ([4]; 35 min): 1.071 and 1.055 and 1.07
- Emission ratio ([4]; 40 min): 1.061 and 1.059 and 1.064
- Emission ratio ([4]; 45 min): 1.071 and 1.057 and 1.074
- Emission ratio ([4]; 50 min): 1.071 and 1.056 and 1.075
- Emission ratio ([4]; 55 min): 1.074 and 1.067 and 1.073
- Emission ratio ([4]; 60 min): 1.07 (2×) and 1.065
- Emission ratio ([4]; 65 min): 1.082 (2×) and 1.064
- Emission ratio ([4]; 70 min): 1.08 and 1.068 and 1.078
- Emission ratio ([4]; 75 min): 1.08 and 1.07 and 1.0822
- Emission ratio ([4]; 80 min): 1.068 and 1.078 and 1.077
- Emission ratio ([4]; 85 min): 1.078 and 1.065 and 1.085
- Emission ratio ([4]; 90 min): 1.07 and 1.071 and 1.074
- Increase of the emission ratio in E. coli BL21(DE3) ([4]; 1 mM exogenous compound): could not
- normalized emission ratio of biosensor expressed in E. coli ([5]; time 0 min): 1.005 and 1.001 and 1.025
- normalized emission ratio of biosensor expressed in E. coli ([5]; time 5 min): 1.058 and 1.062 and 1.055
- normalized emission ratio of biosensor expressed in E. coli ([5]; time 10 min): 1.088 and 1.077 and 1.073
- normalized emission ratio of biosensor expressed in E. coli ([5]; time 15 min): 1.099 and 1.097 and 1.073
- normalized emission ratio of biosensor expressed in E. coli ([5]; time 20 min): 1.1106 and 1.107 and 1.081
- normalized emission ratio of biosensor expressed in E. coli ([5]; time 25 min): 1.121 and 1.111 and 1.082
- normalized emission ratio of biosensor expressed in E. coli ([5]; time 30 min): 1.109 and 1.1104 and 1.081
- normalized emission ratio of biosensor expressed in E. coli ([5]; time 35 min): 1.129 and 1.12 and 1.084
- normalized emission ratio of biosensor expressed in E. coli ([5]; time 40 min): 1.119 and 1.117 and 1.099
- normalized emission ratio of biosensor expressed in E. coli ([5]; time 45 min): 1.1243 and 1.118 and 1.09
- normalized emission ratio of biosensor expressed in E. coli ([5]; time 50 min): 1.133 and 1.117 and 1.095
- normalized emission ratio of biosensor expressed in E. coli ([5]; time 55 min): 1.1262 and 1.1195 and 1.107
- normalized emission ratio of biosensor expressed in E. coli ([5]; time 60 min): 1.117 and 1.122 and 1.102
- normalized emission ratio of biosensor expressed in E. coli ([5]; time 65 min): 1.12 and 1.121 and 1.101
- normalized emission ratio of biosensor expressed in E. coli ([5]; time 70 min): 1.122 and 1.126 and 1.113
- normalized emission ratio of biosensor expressed in E. coli ([5]; time 75 min): 1.124 and 1.132 and 1.112
- normalized emission ratio of biosensor expressed in E. coli ([5]; time 80 min): 1.131 and 1.12 and 1.117
- normalized emission ratio of biosensor expressed in E. coli ([5]; time 85 min): 1.127 and 1.1355 and 1.123
- normalized emission ratio of biosensor expressed in E. coli ([5]; time 90 min): 1.127 and 1.137 and 1.122
- Effect on LhgR binding to the lhgO promoter region F1 (LhgR): observed only in the presence of L-2-HG
- Emission ratio (LHGFR0N7C [6]): 2.616 and 2.6121 and 2.633
